Patent publication US20240260575A1, “AGRICULTURAL AND HORTICULTURAL FUNGICIDAL COMPOSITION” (Nippon Soda Co., Ltd., priority 2021, published 2024)

Experiments:
[1] = tested on: gray mold pathogen (Botrytis cinerea); assay: Gray mold antimicrobial test (growth inhibition rate); assay type: cell-based
Method: (Test Example) Gray Mold Antimicrobial Test (Growth Inhibition Rate)
Conidiospores of a gray mold pathogen (Botrytis cinerea) were added to and dispersed in a yeast extract sucrose medium, and a component (I) and a component (II) dissolved in dimethyl sulfoxide at predetermined concentrations were further added and mixed thereto, and the resulting solution was dispensed onto a 96-well microplate and cultivated in the dark at 20° C. for 3 to 5 days. After the cultivation, the turbidity at a wavelength of 405 nm was measured by a microplate reader and compared with that in the untreated case to determine the growth inhibition rate (%) for the gray mold pathogen. The test was duplicately carried out. The results are shown in Tables 3 to 7 together with expected values calculated as follows.
Expected values were calculated by using Colby's equation: E=M+N−MN/100. Here, E denotes an expected value (%) of a growth inhibition rate, M denotes a growth inhibition rate (%) in using a component (I) alone, and N denotes a growth inhibition rate (%) in using a component (II) alone.
If the actually measured growth inhibition rate (%) of a composition of a component (I) and a component (II) is higher than the expected value, E, the composition of a component (I) and a component (II) is said to have exerted synergistic effect.

[2] = tested on: cucumber powdery mildew pathogen (Sphaerotheca fuliginea); assay: Cucumber powdery mildew control test; assay type: in vivo; parameters: scale not given here; settings: sprayed onto cucumber seedlings
Excerpt: (Test Example) Cucumber Powdery Mildew Control Test 1) Preparation of Drug Solution for Test […] The other components (II) were each formulated into an aqueous solution or suspension having a predetermined concentration. 2) Test A mixed solution of a component (I) and a component (II) at a predetermined concentration was sprayed onto cucumber seedlings (variety: “Shimo-shirazu, creeping type”, cotyledon stage). After natural drying at room temperature, conidiospores of a cucumber powdery mildew pathogen (Sphaerotheca fuliginea) were inoculated by blushing off, and the seedlings were kept in a thermostatic room at 20° C. using a 12 hour light/dark cycle for 7 to 10 days. The states of lesion development on leaves were examined by comparing with that for the untreated case, and the control values were determined. The test was duplicately carried out. The results are shown in Tables 8 to 12 together with expected values calculated as follows. Expected values were calculated by using Colby's equation: […] Here, E denotes an expected value of a control value, M denotes a control value in using a component (I) alone, and N denotes a control value in using a component (II) alone. If the actually measured control value of a composition of a component (I) and a component (II) is higher than the expected value, E, the composition of a component (I) and a component (II) is said to have exerted synergistic effect.

SMILES	growth inhibition rate ([1]; Table 3, Examination 2, Compound 1 (0.25 or 0.063 ppm) alone or mixed with component (II)) [%]	growth inhibition rate ([1]; Table 3, Examination 4, Compound 1 (0.25 or 0.063 ppm) alone or mixed with component (II)) [%]	control value ([2]; Table 8, Examination 1, Compound 1 0.4 ppm alone or mixed with component (II))	control value ([2]; Table 8, Examination 2, Compound 1 0.4 ppm alone or mixed with component (II))	control value ([2]; Table 8, Examination 3, Compound 1 0.4 ppm alone or mixed with component (II))	control value ([2]; Table 8, Examination 4, Compound 1 0.4 ppm alone or mixed with component (II))	control value ([2]; Table 8, Examination 5, Compound 1 0.4 ppm alone or mixed with component (II))	control value ([2]; Table 8, Examination 6, Compound 1 0.4 ppm alone or mixed with component (II))	growth inhibition rate ([1]; Table 6, Examination 1, Compound 4 (0.25 or 0.063 ppm) alone or mixed with component (II)) [%]	growth inhibition rate ([1]; Table 6, Examination 2, Compound 4 (0.25 or 0.063 ppm) alone or mixed with component (II)) [%]	growth inhibition rate ([1]; Table 6, Examination 3, Compound 4 (0.25 or 0.063 ppm) alone or mixed with component (II)) [%]	growth inhibition rate ([1]; Table 6, Examination 4, Compound 4 (0.25 or 0.063 ppm) alone or mixed with component (II)) [%]	growth inhibition rate ([1]; Table 6, Examination 5, Compound 4 (0.25 or 0.063 ppm) alone or mixed with component (II)) [%]	growth inhibition rate ([1]; Table 6, Examination 6, Compound 4 (0.25 or 0.063 ppm) alone or mixed with component (II)) [%]	control value ([2]; Table 11, Examination 1, Compound 4 0.4 ppm alone or mixed with component (II))	control value ([2]; Table 11, Examination 2, Compound 4 0.4 ppm alone or mixed with component (II))	control value ([2]; Table 11, Examination 3, Compound 4 0.4 ppm alone or mixed with component (II))	control value ([2]; Table 11, Examination 4, Compound 4 0.4 ppm alone or mixed with component (II))	control value ([2]; Table 11, Examination 5, Compound 4 0.4 ppm alone or mixed with component (II))	control value ([2]; Table 11, Examination 6, Compound 4 0.4 ppm alone or mixed with component (II))
COc1ccc(F)cc1C(O)Cn1cc(/C(C)=N/OC(C)C)c(=O)n(C[C@@H](NC(=O)C(C)C)C(C)C)c1=O (some centres unmarked) [Compound 1]	52	31	78	64	67	83	75	67	–	–	–	–	–	–	–	–	–	–	–	–
COc1ccccc1C(O)Cn1cc(/C(C)=N/OC(C)C)c(=O)n(C[C@H](C)NC(=O)C(C)C)c1=O (some centres unmarked) [Compound 4]	–	–	–	–	–	–	–	–	56	31	6	4	4	3	78	64	63	59	59	67
